Test results as given in the supplement of paper PMC3493320.

What follows are compounds tested on NCI-H295R (assay: IC50 (antiproliferative, ATP content)). Details: 48 h.
How it was run: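 Serum-free ITS-supplemented DMEM was used to seed 1500 adrenocortical carcinoma cells per well in 1536-well plates, which were cultured overnight. Eight final concentrations of each library compound, from 0.6 nM to 46 µM, were added by pin transfer, followed by 48 h at 37 °C in 5% CO2 and a CellTiter-Glo ATP read after 20 min at room temperature. Luminescence was set against vehicle and positive-control wells, and the IC50 was obtained by logistic curve fitting. Any compound with no concentration response was entered as above the top dose.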
N[C@@H](CCC(=O)N[C@@H](CS)C(=O)NCC(=O)O)C(=O)O was tested, and the IC50 was > 46 µM.
CCCCCCCCCCCCOCCCN was tested, and the IC50 was > 46 µM.
CC(=O)OCC(COC(C)=O)OC(C)=O was tested, and the IC50 was > 46 µM.
With CC[C@H]1OC(=O)[C@H](C)[C@@H](O[C@H]2C[C@@](C)(OC)[C@@H](O)[C@H](C)O2)[C@H](C)[C@@H](O[C@@H]2O[C@H](C)C[C@H](N(C)C)[C@H]2O)[C@](C)(O)C[C@@H](C)C(=NOCOCCOC)[C@H](C)[C@@H](O)[C@]1(C)O the IC50 was > 46 µM.
With CCOC(=O)c1ccccc1O the IC50 was > 46 µM.
In the case of Cl.Clc1ccc(C(OCCN2CCCCC2)c2ccccc2)cc1 (stereo not given), the IC50 is reported as > 46 µM.
In the case of O=S(=O)([O-])CCS.[Na+], the IC50 is reported as > 46 µM.
CC(C)=CCC/C(C)=C/CC/C(C)=C/CC/C(C)=C/CC1=C(C)C(=O)c2ccccc2C1=O was tested, and the IC50 was > 46 µM.
For C[C@]12N[C@H](Cc3ccccc31)c1ccccc12.O=C(O)/C=C\C(=O)O, the IC50 was > 46 µM.
With Cl.O=C(c2cn(C)c1ccccc12)[C@H]3CC=4N\C=N/C=4CC3 the IC50 was > 46 µM.
O=C1/C(=C2\Nc3ccccc3C2=O)Nc2ccccc21 was tested, and the IC50 was > 46 µM.
With CN(C)C(=O)C(CCN1CCC(O)(c2ccc(Cl)cc2)CC1)(c1ccccc1)c1ccccc1 the IC50 was > 46 µM.
COc1cc2c(cc1OC)C(=O)C(CC1CCN(Cc3ccccc3)CC1)C2.Cl (stereo not given) was tested, and the IC50 was > 46 µM.
In the case of CCCCC(O)c1ccccc1 (stereo not given), the IC50 is reported as > 46 µM.
C[N+](C)(C)CCOC(N)=O.[Cl-] was tested, and the IC50 was > 46 µM.
In the case of Cc1[nH]c(=O)c(C#N)cc1-c1ccc2nccn2c1.Cl, the IC50 is reported as > 46 µM.
For CO/N=C(\C(=O)N[C@@H]1C(=O)N2C(C(=O)[O-])=C(CSc3nc(=O)c([O-])nn3C)CS[C@H]12)c1csc(N)n1.O.O.O.[Na+].[Na+], the IC50 was > 46 µM.
For C[N+](C)(C)CC(=O)O.[Cl-], the IC50 was > 46 µM.
With CC(=O)Oc1ccc(C(c2ccc(OC(C)=O)cc2)c2ccccn2)cc1 the IC50 was > 46 µM.
For CN1C[C@@H]2C[C@H]1CN2c1cc2c(cc1F)c(=O)c(C(=O)O)cn2C1CC1, the IC50 was > 46 µM.
CO[C@@H]1[C@@H](O[C@@H]2O[C@H](C)[C@@H](O[C@H]3C[C@@](C)(O)[C@@H](O)[C@H](C)O3)[C@H](N(C)C)[C@H]2O)[C@@H](CC=O)C[C@@H](C)[C@@H](O[C@@H]2CC[C@H](N(C)C)[C@@H](C)O2)/C=C/C=C/C[C@@H](C)OC(=O)C[C@H]1O was tested, and the IC50 was > 46 µM.
With NCC1(CC(=O)O)CCCCC1 the IC50 was > 46 µM.
With CC1NCCOC1c1ccccc1.Cl (stereo not given) the IC50 was > 46 µM.
CS(=O)(=O)Nc1ccc([N+](=O)[O-])cc1Oc1ccccc1 was tested, and the IC50 was > 46 µM.
C[Se]CC[C@H](N)C(=O)O was tested, and the IC50 was > 46 µM.
In the case of COc3ccccc3N2CCN(CCCN\C1=C\C(=O)N(C)C(=O)N1C)CC2, the IC50 is reported as > 46 µM.
With C=C1c2c(Cl)ccc(O)c2C(=O)C2=C(O)[C@]3(O)C(=O)C(C(N)=O)=C(O)[C@@H](N(C)C)[C@@H]3[C@@H](O)[C@H]12.O=C(O)c1cc(S(=O)(=O)O)ccc1O the IC50 was > 46 µM.
For CCOc1cc(OCC)c(C(=O)CCC(=O)O)cc1OCC, the IC50 was > 46 µM.
In the case of C=CCc1cc(OC)c(O)c(C(=O)NCCO)c1, the IC50 is reported as > 46 µM.
For COc1ccc(C(Cl)=C(c2ccc(OC)cc2)c2ccc(OC)cc2)cc1, the IC50 was > 46 µM.
O=c1c(-c2ccc(O)cc2)coc2cc(O)cc(O)c12 was tested, and the IC50 was > 46 µM.
OCCN(CCO)c1nc(N2CCCCC2)c2nc(N(CCO)CCO)nc(N3CCCCC3)c2n1 was tested, and the IC50 was > 46 µM.
In the case of C/C(=C\C(=O)OCCCCCCCCC(=O)O)C[C@@H]1OC[C@H](C[C@@H]2O[C@H]2[C@@H](C)[C@H](C)O)[C@@H](O)[C@H]1O, the IC50 is reported as > 46 µM.
For C[C@]12CCC(=O)C=C1C=C[C@@H]1[C@@H]2CC[C@@]2(C)[C@H]1CC[C@@]21CCC(=O)O1, the IC50 was > 46 µM.
O=NN(CCCl)C(=O)NC1CCCCC1 was tested, and the IC50 was > 46 µM.
C[Si](C)(C)O[Si](C)(C)C was tested, and the IC50 was > 46 µM.
CCCCCN(C)CCC(O)(P(=O)([O-])O)P(=O)(O)O.[Na+] was tested, and the IC50 was > 46 µM.
With C=CC1=C(C(=O)O)N2C(=O)[C@@H](NC(=O)C(=NOCC(=O)O)c3csc(N)n3)[C@H]2SC1 the IC50 was > 46 µM.
With FCOC(C(F)(F)F)C(F)(F)F the IC50 was > 46 µM.
In the case of O=C(O)C[CH2][Ge](=[O])[O][Ge](=[O])[CH2]CC(=O)O, the IC50 is reported as > 46 µM.
COc1ccc(C(=O)/C(Br)=C\C(=O)O)cc1 was tested, and the IC50 was > 46 µM.
C[C@H](CCC(=O)O)[C@H]1CC[C@H]2[C@@H]3C(=O)C[C@@H]4CC(=O)CC[C@]4(C)[C@H]3CC(=O)[C@]12C was tested, and the IC50 was > 46 µM.
With O=c1ccn(C2OC(COP(=O)(O)OC3C(CO)OC(n4ccc(=O)[nH]c4=O)C3O)C(O)C2O)c(=O)[nH]1 (stereo not given) the IC50 was > 46 µM.
In the case of CCN(Cc1ccc(Cl)nc1)/C(=C/[N+](=O)[O-])NC, the IC50 is reported as > 46 µM.
In the case of O=C(NCCO[N+](=O)[O-])c1cccnc1, the IC50 is reported as > 46 µM.
For O=c1[nH]c(=O)n([C@H]2C[C@H](O)[C@@H](CO)O2)cc1/C=C/Br, the IC50 was > 46 µM.
With CC(=O)c1ccc2c(c1)N(CCCN(C)C)c1ccccc1S2.O=C(O)/C=C/C(=O)O the IC50 was > 46 µM.
N#CCC(=O)NN was tested, and the IC50 was > 46 µM.
CCN(CC)CCOCCOC(=O)C(CC)(CC)c1ccccc1.O=C(O)CC(O)(CC(=O)O)C(=O)O was tested, and the IC50 was > 46 µM.
For CCN(CC)C(=O)c1cccc(C)c1, the IC50 was > 46 µM.
For O=C1N(c2ccccc2)c2ccccc2C1(Cc1ccncc1)Cc1ccncc1, the IC50 was > 46 µM.
For NC(=O)CCCCC1CCSS1 (stereo not given), the IC50 was > 46 µM.
In the case of N=C(N)NCC1COc2ccccc2O1 (stereo not given), the IC50 is reported as > 46 µM.
For NCCCC(O)(P(=O)([O-])O)P(=O)(O)O.O.O.O.[Na+], the IC50 was > 46 µM.
In the case of CCOP(=S)(OCC)Oc1cc(C)nc(C(C)C)n1, the IC50 is reported as > 46 µM.
For Clc1ccccc1-c1nc(-c2ccncc2)no1, the IC50 was > 46 µM.
With COc1ccc(O)cc1 the IC50 was > 46 µM.
For O=C(CCCN1CCC(n2c(=O)[nH]c3ccccc32)CC1)c1ccc(F)cc1, the IC50 was > 46 µM.
For O=C([O-])CN(CCN(CC(=O)[O-])CC(=O)[O-])CC(=O)[O-].[Ca+2].[Na+].[Na+], the IC50 was > 46 µM.
C=CCCCCCCCCC(=O)O was tested, and the IC50 was > 46 µM.
For C[C@H](Cn1cnc2c(N)ncnc21)OCP(=O)(O)O, the IC50 was > 46 µM.
In the case of COc1ccc(C(=O)c2ccccc2)c(O)c1, the IC50 is reported as > 46 µM.
With COc1ccc(C=CC(=O)OCCC(C)C)cc1 the IC50 was > 46 µM.
With Nc1c2c(nc3ccccc13)CCCC2 the IC50 was > 46 µM.
For CCCCCC(C)N.CCCCCC(C)N.O=S(=O)(O)O (stereo not given), the IC50 was > 46 µM.
In the case of O=[C@](O)[C@@H]2CC1=C(CN2C([C@H](C)N[C@@H](CCC3=CC=CC=C3)[C@](OCC)=O)=O)C=C(OC)C(OC)=C1.Cl, the IC50 is reported as > 46 µM.
With O=C2O[C@H](C)C/C=C/C=C/C=C/C=C/[C@H](O[C@@H]3O[C@H](C)[C@@H](O)[C@H](N)[C@@H]3O)C[C@]([C@H]([C@@](O)=O)[C@@H](O)C4)([H])O[C@]4(O)C[C@@H](O)C[C@@]1([H])O[C@@]([H])1/C=C/2 the IC50 was > 46 µM.
With CCNC(=O)/C=C/c1cccc(Br)c1 the IC50 was > 46 µM.
With CCN(CC)CCOC[C@H]1O[C@@H](O)[C@H](OCCN(CC)CC)[C@@H](O)[C@@H]1O the IC50 was > 46 µM.
C[C@@H](O)[C@H](N)C(=O)O was tested, and the IC50 was > 46 µM.
In the case of Cc1cc(C(=O)O)c(C)n1-c1cccc(C(=O)O)c1.O=C1C[C@@H]2OCC=C3CN4CC[C@]56c7ccccc7N1[C@H]5[C@H]2[C@H]3C[C@H]46, the IC50 is reported as > 46 µM.
CN1CCN(C2=Nc3cc(F)ccc3Cc3ccccc32)CC1 was tested, and the IC50 was > 46 µM.
For O=C(O)[C@@H]1C[C@H](CP(=O)(O)O)CCN1, the IC50 was > 46 µM.
For N=C(N)NC(=O)c1nc(Cl)c(N)nc1N, the IC50 was > 46 µM.
For [O]=[Bi][O]C(=O)[O][Bi]=[O], the IC50 was > 46 µM.
With COc1ccc(-c2cc(=O)c3c(O)cc(O[C@@H]4O[C@H](CO[C@@H]5O[C@@H](C)[C@H](O)[C@@H](O)[C@H]5O)[C@@H](O)[C@H](O)[C@H]4O)cc3o2)cc1O the IC50 was > 46 µM.
For O=C1[C@H]3[C@H](C3)[C@@]([C@]4([H])[C@@]([C@@]5([H])[C@]([C@@](CC5)(OC(C)=O)[C@@](C)=O)(C)CC4)([H])C=C2Cl)(C)C2=C1, the IC50 was > 46 µM.
For COc1ccc([C@@H]2Sc3ccccc3N(CCN(C)C)C(=O)[C@@H]2OC(C)=O)cc1, the IC50 was > 46 µM.
For CC(=O)Nc1ncc([N+](=O)[O-])s1, the IC50 was > 46 µM.
O=S(=O)(O)O.Oc1ccc(C(O)CNCCCCCCNCC(O)c2ccc(O)c(O)c2)cc1O (stereo not given) was tested, and the IC50 was > 46 µM.
With CC(C(=O)O)c1ccc(C(=O)c2cccs2)cc1 (stereo not given) the IC50 was > 46 µM.
FC(F)(F)C(F)(F)C(F)(F)C(F)(F)C(F)(F)C(F)(F)C(F)(F)C(F)(F)Br was tested, and the IC50 was > 46 µM.
COCCCOc1ccnc(CS(=O)c2nc3ccccc3[n-]2)c1C.[Na+] (stereo not given) was tested, and the IC50 was > 46 µM.
With CCOC(=O)C1=C(C)NC(C)=C(C(=O)OC)C1c1cccc(Cl)c1Cl (stereo not given) the IC50 was > 46 µM.
For O.O.Oc1cc(O)cc(O)c1, the IC50 was > 46 µM.
NC(=O)CN1CC(O)CC1=O (stereo not given) was tested, and the IC50 was > 46 µM.
CN1CCOC(c2ccccc2)c2ccccc2C1.Cl (stereo not given) was tested, and the IC50 was > 46 µM.
For CO, the IC50 was > 46 µM.
O=C(Nc1ccc(Cl)c(Cl)c1)C1CC1 was tested, and the IC50 was > 46 µM.
In the case of CC(C)c1ccc2oc3nc(N)c(C(=O)O)cc3c(=O)c2c1, the IC50 is reported as > 46 µM.
In the case of O=C(O)C1=CC2=C(C=CC=C2)C(CC3=C(O)C(C(O)=O)=CC4=C3C=CC=C4)=C1O.O=C([C@H](NC([C@@H](NC([C@@H](NC([C@@H](NC([C@@H](N[C@]([C@@H](N%11)CCC%11=O)=O)CC%10=CNC=N%10)=O)CC8=CNC9=CC=CC=C89)=O)CO)=O)CC7=CC=C(C=C7)O)=O)CC5=CNC6=CC=CC=C56)N[C@H](C(N[C@H](C(N%12CCC[C@@H]%12[C@@](NCC(N)=O)=O)=O)CCCNC(N)=N)=O)CC(C)C, the IC50 is reported as > 46 µM.
In the case of C[C@]43CCC(=O)\C=C4\CC[C@@H]1[C@@H]3CC[C@]2(C)[C@H](O)CC[C@@H]12, the IC50 is reported as > 46 µM.
For ClCc1ccccc1.O=C1C[C@@H]2OCC=C3CN4CC[C@]56c7ccccc7N1[C@H]5[C@H]2[C@H]3C[C@H]46, the IC50 was > 46 µM.
C1[C@@H]([C@H]([C@@H]([C@H]([N@]1CCO)CO)O)O)O was tested, and the IC50 was > 46 µM.
With CCN1CCCC1=O the IC50 was > 46 µM.
